Test results reported in ChEMBL document CHEMBL4732205, “Structure-based optimization identified novel furyl-containing 2,4-diarylaminopyrimidine analogues as ALK/ROS1 dual inhibitors with anti-mutation effects” (Eur J Med Chem, 2021).
Active and inactive are the calls of the source. No cut-off for these calls is given here.

Legend:
[1] = test system: KARPAS-299; assay: Antiproliferative activity against human KARPAS-299 cells assessed as reduction in cell growth incubated for 72 hrs by MTT assay; format: functional, cell-based; settings: KARPAS-299, 72 h
[2] = test system: NCI-H2228; assay: Antiproliferative activity against human NCI-H2228 cells assessed as reduction in cell growth incubated for 72 hrs by MTT assay; format: functional, cell-based; settings: NCI-H2228, 72 h
[3] = test system: A549; assay: Antiproliferative activity against human A549 cells assessed as reduction in cell growth incubated for 72 hrs by MTT assay; format: functional, cell-based; settings: A549, 72 h
[4] = test system: MCF7; assay: Antiproliferative activity against human MCF7 cells assessed as reduction in cell growth incubated for 72 hrs by MTT assay; format: functional, cell-based; settings: MCF7, 72 h
[5] = target: T1, ALK tyrosine kinase receptor (Homo sapiens, UniProt Q9UM73); assay: Inhibition of recombinant human N-terminal GST-tagged ALK (1058 to 1620 residues) expressed in baculovirus expression system using Srctide as substrate incubated for 1 hr by mobility shift assay
Target sequence in this assay (Q9UM73 whole entry, the tested form may be a part): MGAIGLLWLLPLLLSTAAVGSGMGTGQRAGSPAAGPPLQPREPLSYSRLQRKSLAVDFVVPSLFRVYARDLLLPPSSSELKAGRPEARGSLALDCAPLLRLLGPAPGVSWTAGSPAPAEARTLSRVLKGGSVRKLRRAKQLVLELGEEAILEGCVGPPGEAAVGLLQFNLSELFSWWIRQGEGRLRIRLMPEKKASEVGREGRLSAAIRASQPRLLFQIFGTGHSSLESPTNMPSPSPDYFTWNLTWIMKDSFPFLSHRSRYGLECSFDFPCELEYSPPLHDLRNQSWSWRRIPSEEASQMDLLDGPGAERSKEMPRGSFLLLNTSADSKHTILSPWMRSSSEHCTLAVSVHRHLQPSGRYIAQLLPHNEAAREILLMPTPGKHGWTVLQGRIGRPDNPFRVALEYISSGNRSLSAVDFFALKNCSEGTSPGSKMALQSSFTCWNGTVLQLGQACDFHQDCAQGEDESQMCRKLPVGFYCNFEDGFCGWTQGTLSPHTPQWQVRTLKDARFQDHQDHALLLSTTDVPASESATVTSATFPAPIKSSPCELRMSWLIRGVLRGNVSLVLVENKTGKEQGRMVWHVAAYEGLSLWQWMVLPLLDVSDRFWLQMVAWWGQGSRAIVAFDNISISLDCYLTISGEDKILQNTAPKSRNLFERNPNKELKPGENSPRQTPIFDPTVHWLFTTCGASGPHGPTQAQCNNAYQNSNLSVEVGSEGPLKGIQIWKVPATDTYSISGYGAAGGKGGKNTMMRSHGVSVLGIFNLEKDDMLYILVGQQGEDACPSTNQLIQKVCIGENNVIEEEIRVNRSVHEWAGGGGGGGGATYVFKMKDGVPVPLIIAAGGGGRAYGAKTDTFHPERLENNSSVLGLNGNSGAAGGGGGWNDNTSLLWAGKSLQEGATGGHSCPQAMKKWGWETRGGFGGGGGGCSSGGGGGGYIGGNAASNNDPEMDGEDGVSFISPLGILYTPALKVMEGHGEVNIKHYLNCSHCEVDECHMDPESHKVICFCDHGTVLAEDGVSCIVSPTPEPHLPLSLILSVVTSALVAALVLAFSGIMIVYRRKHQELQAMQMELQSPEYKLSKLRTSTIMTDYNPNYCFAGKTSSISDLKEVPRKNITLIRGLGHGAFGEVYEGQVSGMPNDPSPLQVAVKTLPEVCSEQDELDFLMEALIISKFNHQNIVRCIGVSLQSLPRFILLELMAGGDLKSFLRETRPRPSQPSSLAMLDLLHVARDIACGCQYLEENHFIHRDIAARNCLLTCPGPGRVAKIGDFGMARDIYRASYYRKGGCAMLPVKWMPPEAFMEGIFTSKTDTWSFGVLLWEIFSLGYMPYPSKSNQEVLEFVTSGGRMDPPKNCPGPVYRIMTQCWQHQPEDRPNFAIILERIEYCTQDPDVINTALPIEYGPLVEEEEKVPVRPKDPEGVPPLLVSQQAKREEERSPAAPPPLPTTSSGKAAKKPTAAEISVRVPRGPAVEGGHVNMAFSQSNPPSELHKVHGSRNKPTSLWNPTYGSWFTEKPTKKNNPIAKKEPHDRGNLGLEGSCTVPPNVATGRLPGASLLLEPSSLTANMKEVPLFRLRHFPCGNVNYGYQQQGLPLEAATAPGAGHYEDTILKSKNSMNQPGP

[6] = target: ALK tyrosine kinase receptor (Homo sapiens, UniProt Q9UM73, L1196M); assay: Inhibition of recombinant human N-terminal GST-tagged ALK L1196M mutant (1058 to 1620 residues) expressed in baculovirus expression system using Srctide as substrate incubated for 1 hr by mobility shift assay
[7] = target: ALK tyrosine kinase receptor (Homo sapiens, UniProt Q9UM73, G1202R); assay: Inhibition of recombinant human N-terminal GST-tagged ALK G1202R mutant (1058 to 1620 residues) expressed in baculovirus expression system using Srctide as substrate incubated for 1 hr by mobility shift assay
ALK tyrosine kinase receptor (Homo sapiens, UniProt Q9UM73, G1202R), sequence (Q9UM73 19-1620 G1202R limits assumed): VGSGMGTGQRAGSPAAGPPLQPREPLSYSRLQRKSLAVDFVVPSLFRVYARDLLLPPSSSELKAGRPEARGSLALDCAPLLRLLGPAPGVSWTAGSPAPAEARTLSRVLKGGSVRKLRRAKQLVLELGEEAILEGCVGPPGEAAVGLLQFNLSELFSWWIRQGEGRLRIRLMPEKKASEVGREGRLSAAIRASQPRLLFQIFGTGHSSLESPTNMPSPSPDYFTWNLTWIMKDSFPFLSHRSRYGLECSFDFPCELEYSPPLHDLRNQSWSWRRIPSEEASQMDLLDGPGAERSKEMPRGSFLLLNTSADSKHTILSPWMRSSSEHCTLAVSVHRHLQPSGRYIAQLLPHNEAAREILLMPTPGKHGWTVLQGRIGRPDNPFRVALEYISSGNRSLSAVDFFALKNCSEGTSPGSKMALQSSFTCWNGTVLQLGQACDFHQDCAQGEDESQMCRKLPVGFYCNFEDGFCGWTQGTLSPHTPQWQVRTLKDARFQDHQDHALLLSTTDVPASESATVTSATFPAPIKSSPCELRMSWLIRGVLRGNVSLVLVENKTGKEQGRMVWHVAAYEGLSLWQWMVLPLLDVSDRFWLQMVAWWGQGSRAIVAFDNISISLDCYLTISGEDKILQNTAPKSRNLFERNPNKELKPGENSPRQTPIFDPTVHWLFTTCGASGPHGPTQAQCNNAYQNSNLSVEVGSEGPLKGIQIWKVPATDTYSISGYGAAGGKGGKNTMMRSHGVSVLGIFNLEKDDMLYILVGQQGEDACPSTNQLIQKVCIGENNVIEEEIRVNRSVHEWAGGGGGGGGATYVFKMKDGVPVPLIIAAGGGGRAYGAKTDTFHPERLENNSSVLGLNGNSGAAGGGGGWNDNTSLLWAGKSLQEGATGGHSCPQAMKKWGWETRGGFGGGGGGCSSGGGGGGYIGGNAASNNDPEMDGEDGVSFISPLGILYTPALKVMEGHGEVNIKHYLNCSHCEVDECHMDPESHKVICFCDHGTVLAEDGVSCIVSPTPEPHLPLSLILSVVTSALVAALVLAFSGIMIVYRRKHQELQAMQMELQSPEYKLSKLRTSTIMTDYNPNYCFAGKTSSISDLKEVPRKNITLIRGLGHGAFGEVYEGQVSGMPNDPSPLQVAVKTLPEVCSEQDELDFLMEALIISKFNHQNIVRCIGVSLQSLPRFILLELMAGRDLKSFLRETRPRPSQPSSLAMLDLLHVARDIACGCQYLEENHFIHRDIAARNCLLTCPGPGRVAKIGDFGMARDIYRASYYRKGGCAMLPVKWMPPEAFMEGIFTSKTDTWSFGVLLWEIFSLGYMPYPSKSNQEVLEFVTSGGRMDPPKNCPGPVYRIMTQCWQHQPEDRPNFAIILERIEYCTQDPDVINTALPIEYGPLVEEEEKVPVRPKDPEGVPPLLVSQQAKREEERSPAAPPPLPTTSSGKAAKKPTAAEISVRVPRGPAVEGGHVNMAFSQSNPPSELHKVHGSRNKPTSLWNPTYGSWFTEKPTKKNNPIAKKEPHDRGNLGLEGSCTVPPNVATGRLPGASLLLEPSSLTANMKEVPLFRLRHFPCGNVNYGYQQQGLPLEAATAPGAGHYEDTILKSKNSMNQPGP

[8] = target: Proto-oncogene tyrosine-protein kinase ROS (Homo sapiens, UniProt P08922); assay: Inhibition of recombinant human N-terminal GST-tagged ROS1 (1883 to 2347 residues) expressed in baculovirus expression system using IRS1 as substrate incubated for 1 hr by mobility shift assay
[9] = target: Epidermal growth factor receptor (Homo sapiens, UniProt P00533); assay: Inhibition of recombinant human N-terminal GST-tagged EGFR (669 to 1210 residues) expressed in baculovirus expression system using Srctide as substrate incubated for 1 hr by mobility shift assay
Epidermal growth factor receptor, sequence (P00533 whole entry, the tested form may be a part): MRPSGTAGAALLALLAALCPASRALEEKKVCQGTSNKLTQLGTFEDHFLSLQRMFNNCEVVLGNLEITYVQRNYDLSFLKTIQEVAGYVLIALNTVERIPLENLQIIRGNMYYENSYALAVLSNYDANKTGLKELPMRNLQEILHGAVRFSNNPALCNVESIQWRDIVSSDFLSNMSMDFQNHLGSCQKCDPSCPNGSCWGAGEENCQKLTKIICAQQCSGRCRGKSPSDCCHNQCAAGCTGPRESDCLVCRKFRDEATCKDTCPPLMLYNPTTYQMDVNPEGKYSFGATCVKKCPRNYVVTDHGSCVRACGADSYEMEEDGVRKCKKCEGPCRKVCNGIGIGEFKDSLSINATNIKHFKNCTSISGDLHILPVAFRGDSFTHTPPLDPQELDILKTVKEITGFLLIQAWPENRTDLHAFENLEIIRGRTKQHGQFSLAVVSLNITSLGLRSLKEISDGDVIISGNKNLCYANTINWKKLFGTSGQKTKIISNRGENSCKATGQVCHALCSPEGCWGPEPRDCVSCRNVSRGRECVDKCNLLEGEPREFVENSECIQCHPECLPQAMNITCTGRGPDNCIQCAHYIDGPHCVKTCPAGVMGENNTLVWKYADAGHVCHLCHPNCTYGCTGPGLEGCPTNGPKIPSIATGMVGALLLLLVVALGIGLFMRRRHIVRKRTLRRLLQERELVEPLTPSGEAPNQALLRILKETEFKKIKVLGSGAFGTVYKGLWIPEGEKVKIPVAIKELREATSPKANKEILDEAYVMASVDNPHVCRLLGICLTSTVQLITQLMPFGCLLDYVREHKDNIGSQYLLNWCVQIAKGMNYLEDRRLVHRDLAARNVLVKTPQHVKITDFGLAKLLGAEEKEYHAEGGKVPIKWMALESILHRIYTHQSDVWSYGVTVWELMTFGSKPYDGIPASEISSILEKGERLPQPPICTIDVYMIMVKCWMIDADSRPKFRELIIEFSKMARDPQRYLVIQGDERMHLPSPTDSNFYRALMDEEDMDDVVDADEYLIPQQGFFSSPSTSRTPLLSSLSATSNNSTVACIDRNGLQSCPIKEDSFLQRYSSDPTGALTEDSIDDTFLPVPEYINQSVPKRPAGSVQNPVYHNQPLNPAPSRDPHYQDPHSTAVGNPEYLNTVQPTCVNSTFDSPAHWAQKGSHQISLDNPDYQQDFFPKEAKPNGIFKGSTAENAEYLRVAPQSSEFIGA

[10] = test system: ALK tyrosine kinase receptor (Homo sapiens), Q9UM73 [L1196M]; assay: Potency index, ratio of IC50 of ceritinib to IC50 of compound for inhibition of recombinant human N-terminal GST-tagged ALK L1196M mutant (1058 to 1620 residues) expressed in baculovirus expression system using Srctide as substrate incubated for 1 hr by mobility shift assay
[11] = test system: ALK tyrosine kinase receptor (Homo sapiens), Q9UM73 [G1202R]; assay: Potency index, ratio of IC50 of ceritinib to IC50 of compound for inhibition of recombinant human N-terminal GST-tagged ALK G1202R mutant (1058 to 1620 residues) expressed in baculovirus expression system using Srctide as substrate incubated for 1 hr by mobility shift assay
[12] = target: T1, ALK tyrosine kinase receptor; assay: Inhibition of ALK in human NCI-H2228 cells assessed as reduction in ALK phosphorylation incubated for 24 hrs by Western blot analysis; format: cell-based
[13] = target: T1, ALK tyrosine kinase receptor; assay: Inhibition of ALK in human NCI-H2228 cells assessed as reduction in ALK phosphorylation at 100 nM incubated for 24 hrs by Western blot analysis relative to control; format: cell-based
[14] = target: T1, ALK tyrosine kinase receptor; assay: Inhibition of ALK in human NCI-H2228 cells assessed as reduction in Akt phosphorylation at 25 to 100 nM incubated for 24 hrs by Western blot analysis; format: cell-based; settings: dose 25-100 nM
[15] = target: T1, ALK tyrosine kinase receptor; assay: Inhibition of ALK in human NCI-H2228 cells assessed as reduction in Erk phosphorylation at 25 to 100 nM incubated for 24 hrs by Western blot analysis; format: cell-based; settings: dose 25-100 nM
[16] = target: T1, ALK tyrosine kinase receptor; assay: Inhibition of ALK in human NCI-H2228 cells assessed as reduction in Akt expression at 25 to 100 nM incubated for 24 hrs by Western blot analysis; format: cell-based; settings: dose 25-100 nM
[17] = target: T1, ALK tyrosine kinase receptor; assay: Inhibition of ALK in human NCI-H2228 cells assessed as reduction in ERK expression at 25 to 100 nM incubated for 24 hrs by Western blot analysis; format: cell-based; settings: dose 25-100 nM
[18] = test system: NCI-H2228; assay: Effect on ALK expression in human NCI-H2228 cells at 25 to 100 nM incubated for 24 hrs by Western blot analysis; format: functional, cell-based; settings: dose 25-100 nM
[19] = test system: NCI-H2228; assay: Induction of apoptosis in human NCI-H2228 cells assessed as morphological changes incubated for 48 hrs by Hoechst-33258 staining based fluorescence microscopic analysis; format: functional, cell-based; settings: dose 30-120 nM
[20] = test system: NCI-H2228; assay: Induction of apoptosis in human NCI-H2228 cells assessed as morphological changes at 30 nM incubated for 48 hrs by AO-EB staining based fluorescence microscopic analysis; format: functional, cell-based
[21] = test system: NCI-H2228; assay: Induction of apoptosis in human NCI-H2228 cells assessed as early apoptotic cells by observing morphological changes of cell at 120 nM incubated for 48 hrs by AO-EB staining based fluorescence microscopic analysis; format: functional

Row | SMILES | IC50 [1] [nM] | IC50 [2] [nM] | IC50 [3] [nM] | IC50 [4] [nM] | also measured
1 | COc1cc(SCc2ccc(CN3CCC(C)CC3)o2)ccc1Nc1ncc(Cl)c(Nc2ccccc2NS(C)(=O)=O)n1 | 120 | 200 | > 10000 | > 10000 | –
2 | COc1cc(NCc2ccc(CN3CCC(C)CC3)o2)ccc1Nc1ncc(Cl)c(Nc2ccccc2NS(C)(=O)=O)n1 | 620 | 530 | > 10000 | > 10000 | –
3 | COc1cc(NCc2ccc(CN(C)C)o2)ccc1Nc1ncc(Cl)c(Nc2ccccc2NS(C)(=O)=O)n1 | 200 | 520 | 3040 | > 10000 | –
4 | CCN1CCN(Cc2ccc(CSc3ccc(Nc4ncc(Cl)c(Nc5ccccc5NS(C)(=O)=O)n4)c(OC)c3)o2)CC1 | 280 | 670 | > 10000 | > 10000 | –
5 | COc1cc(SCc2ccco2)ccc1Nc1ncc(Cl)c(Nc2ccccc2NS(C)(=O)=O)n1 | 820 | 1360 | > 10000 | > 10000 | –
6 | COc1cc(SCc2ccc(CN3CCSCC3)o2)ccc1Nc1ncc(Cl)c(Nc2ccccc2NS(C)(=O)=O)n1 | 660 | 860 | > 10000 | > 10000 | –
7 | COc1cc(SCc2ccc(CN(C)C)o2)ccc1Nc1ncc(Cl)c(Nc2ccccc2NS(C)(=O)=O)n1 | 20 | 110 | > 10000 | > 10000 | IC50 [5]: 2.8 nM; IC50 [6]: 2.6 nM; IC50 [7]: 3.8 nM; IC50 [8]: 2.3 nM; IC50 [9]: > 1000 nM; Ratio IC50 [10]: 5; Ratio IC50 [11]: 5; inhibition [12]: Dose-dependent effect; inhibition [13]: 100%; inhibition [14]: Active; inhibition [15]: Active; inhibition [16]: Active; inhibition [17]: Active; Activity [18]: Active; Activity [19]: Dose-dependent effect; Activity [20]: Active; Activity [21]: Active
8 | COc1cc(SCc2ccc(CN3CCN(CCO)CC3)o2)ccc1Nc1ncc(Cl)c(Nc2ccccc2NS(C)(=O)=O)n1 | 510 | 820 | > 10000 | > 10000 | –
9 | COc1cc(NCc2ccc(CN3CCCCC3)o2)ccc1Nc1ncc(Cl)c(Nc2ccccc2NS(C)(=O)=O)n1 | 280 | 350 | 2360 | > 10000 | –
10 | COc1cc(NCc2ccc(CN3CCCC3)o2)ccc1Nc1ncc(Cl)c(Nc2ccccc2NS(C)(=O)=O)n1 | 350 | 420 | > 10000 | > 10000 | –
11 | COc1cc(NCC2CCCO2)ccc1Nc1ncc(Cl)c(Nc2ccccc2NS(C)(=O)=O)n1 (stereo not given) | 250 | 140 | 800 | > 10000 | IC50 [5]: 3.2 nM; IC50 [6]: 5.8 nM; IC50 [7]: 4.5 nM; IC50 [8]: 4.6 nM; IC50 [9]: > 1000 nM
12 | COc1cc(SCc2ccc(CN3CCCC3)o2)ccc1Nc1ncc(Cl)c(Nc2ccccc2NS(C)(=O)=O)n1 | 70 | 140 | > 10000 | 2810 | IC50 [5]: 3.4 nM; IC50 [6]: 2.8 nM; IC50 [7]: 3.9 nM; IC50 [8]: 4.2 nM; IC50 [9]: > 1000 nM
13 | COc1cc(OCC2CCCO2)ccc1Nc1ncc(Cl)c(Nc2ccccc2NS(C)(=O)=O)n1 (stereo not given) | 190 | 90 | > 10000 | > 10000 | IC50 [5]: 3 nM; IC50 [6]: 3.3 nM; IC50 [7]: 2.1 nM; IC50 [8]: 3.7 nM; IC50 [9]: > 1000 nM
14 | COc1cc(NCc2ccc(CN3CCOCC3)o2)ccc1Nc1ncc(Cl)c(Nc2ccccc2NS(C)(=O)=O)n1 | 230 | 320 | > 10000 | > 10000 | –
15 | COc1cc(SCc2ccc(CN3CCOCC3)o2)ccc1Nc1ncc(Cl)c(Nc2ccccc2NS(C)(=O)=O)n1 | 150 | 430 | 920 | > 10000 | –
16 | COc1cc(NCc2ccco2)ccc1Nc1ncc(Cl)c(Nc2ccccc2NS(C)(=O)=O)n1 | 980 | 1580 | > 10000 | > 10000 | –
17 | COc1cc(NCc2ccc(CN3CCSCC3)o2)ccc1Nc1ncc(Cl)c(Nc2ccccc2NS(C)(=O)=O)n1 | 1020 | 1600 | > 10000 | > 10000 | –
18 | Cc1cc(Nc2ncc(Cl)c(Nc3ccccc3S(=O)(=O)C(C)C)n2)c(OC(C)C)cc1C1CCNCC1 [CERITINIB] | 80 | – | – | > 10000 | –
19 | CCN1CCN(Cc2ccc(CNc3ccc(Nc4ncc(Cl)c(Nc5ccccc5NS(C)(=O)=O)n4)c(OC)c3)o2)CC1 | 400 | 720 | > 10000 | > 10000 | –
20 | COc1cc(NCc2ccco2)ccc1Nc1ncc(Cl)c(Nc2ccccc2NC(C)=O)n1 | 2470 | 3540 | > 10000 | > 10000 | –
21 | CCN(CC)Cc1ccc(CSc2ccc(Nc3ncc(Cl)c(Nc4ccccc4NS(C)(=O)=O)n3)c(OC)c2)o1 | 180 | 340 | > 10000 | > 10000 | –
22 | CCN(CC)Cc1ccc(CNc2ccc(Nc3ncc(Cl)c(Nc4ccccc4NS(C)(=O)=O)n3)c(OC)c2)o1 | 350 | 570 | 3560 | > 10000 | –
23 | COc1cc(OCc2ccco2)ccc1Nc1ncc(Cl)c(Nc2ccccc2NS(C)(=O)=O)n1 | – | 1590 | > 10000 | > 10000 | –
24 | COc1cc(S(=O)(=O)Cc2ccco2)ccc1Nc1ncc(Cl)c(Nc2ccccc2NS(C)(=O)=O)n1 | 1230 | 1700 | > 10000 | > 10000 | –
25 | COc1cc(SCc2ccc(CN3CCCCC3)o2)ccc1Nc1ncc(Cl)c(Nc2ccccc2NS(C)(=O)=O)n1 | 350 | 500 | 3920 | > 10000 | –
26 | COc1cc(SCc2ccc(CN3CCN(C)CC3)o2)ccc1Nc1ncc(Cl)c(Nc2ccccc2NS(C)(=O)=O)n1 | 140 | 480 | > 10000 | > 10000 | –
27 | COc1cc(NCc2ccc(CN3CCN(CCO)CC3)o2)ccc1Nc1ncc(Cl)c(Nc2ccccc2NS(C)(=O)=O)n1 | 870 | 990 | > 10000 | > 10000 | –
28 | COc1cc(NCc2ccc(CN3CCN(C)CC3)o2)ccc1Nc1ncc(Cl)c(Nc2ccccc2NS(C)(=O)=O)n1 | 360 | 480 | > 10000 | > 10000 | –
29 | COc1cc(S(=O)(=O)Cc2ccco2)ccc1Nc1ncc(Cl)c(Nc2ccccc2NC(C)=O)n1 | 2410 | 3790 | > 10000 | > 10000 | –
